Values after ≈ are worked out from the molar mass of the structure shown. Values joined by “and” are separate entries in the source; they are usually repeats but may differ in a detail not shown here. Equal entries are not always repeated.
Legend:
[1] = system: E. coli JM105; assay: Integrated current (charge) measurement after incubation with lysozyme or EDTA; type: cell-based; conditions: for Charge: single measurements, charge between 60 and 120 s
Protocol: E. coli JM105 was grown in the same manner as in Example 1. The assay procedure used to determine the effect of lysozyme on mediated electrochemical respiration rate was as follows. […] Ferricyanide solution (270 μL) was then added so that the final ferricyanide concentration was 50 mM. These solutions were incubated at 37 C for 10 min. Each sample was then analyzed electrochemically using a Pt working electrode, Ag/AgCl reference electrode and a stainless steel auxilliary electrode, with an applied potential of +0.500 V. The current measured at the working electrode was integrated over the time between 60 and 120 seconds. These experiments were repeated to determine average values of integrated current (charge). The effect of ethylenediaminetetraacetate (EDTA) on electrochemical response was investigated in a similar manner. […] The samples were incubated 10 min at 37 C, and the electrochemical analysis was done as described above for lysozyme.

[2] = system: Clostridium sporogenes (ATCC 8075); assay: Mediated chronocoulometric respiration assay (ferricyanide + DCIP, anaerobic); type: cell-based; conditions: for Mediated Chronocoulometric Respiratory Activity Remaining, Percent: average of two measurements, 20 min + 20 min at 37 C under nitrogen
Protocol: This organism was chosen as a typical gram-positive, obligate anaerobe. Growth under anaerobic conditions was accomplished using a similar medium to that used for E. coli except that the concentrations of yeast extract and tryptone were doubled and the concentration of glucose was five-fold lower for the C. sporogenes growth. Assay conditions were the same as in Example 2, with the following exceptions. The incubation of 20 μL of the bacterial suspension with 130 μL of either the blank buffer or the chloramphenicol or lysozyme solution was done for 20 min at 37 C. Mediator solution (150 μL) containing 0.10 M ferricyanide and 10 μM 2,6-dichlorophenolindophenol (DCIP) was then added and the mixture was allowed to incubate for another 20 min at 37 C, giving final concentrations of 0.050 M ferricyanide and 5 μM DCIP, respectively. All manipulations were performed under a stream of nitrogen, to ensure the absence of oxygen, which is known to inhibit the growth of C. sporogenes. Measurement by chronocoulometry was performed in an identical manner as in Example 2.

[3] = system: E. coli JM105; assay: Chronocoulometric mediated respiration assay (ferricyanide); type: cell-based
Protocol: At this time, a platinum disk working electrode, Ag/AgCl reference electrode and a stainless steel auxiliary electrode are inserted, and a potential of +0.50 V is applied using a potentiostat. The measured current is integrated over time to produce a plot of total charge against time. The change in total charge is measured between 60 and 120 seconds after the potential is applied. The same procedures for E. coli growth, incubation with ferricyanide and antibiotic, and measurement were used in this Example as were used in Example 2. One antibiotic was studied for the effect of concentration, and this was chloramphenicol.

[4] = system: Clostridium sporogenes (ATCC 8075); conditions: see Bergey; cited from earlier work

Molecule: O=C(O)CN(CCN(CC(=O)O)CC(=O)O)CC(=O)O [EDTA, Ethylenediaminetetraacetate]
- Charge, Average ([1]; 5 mM EDTA, blank 38 +/− 2): 45 +/− 2 μC
- Charge ([1]; 5 mM EDTA in 50 mM ferricyanide, 10 min at 37 C): 46.3 μC and 43.1 μC and 45.2 μC and 43.3 μC

Molecule: O=C(N[C@H](CO)[C@H](O)c1ccc([N+](=O)[O-])cc1)C(Cl)Cl [Chloramphenicol]
- Mediated Chronocoulometric Respiratory Activity Remaining, Percent ([2]; final concentration 5.00 mM): 24%
- IC50 ([3]; Escherichia coli, JM105, from the concentration series of Table 5): 48 µM
- MIC ([3]; Escherichia coli, JM105, from the concentration series of Table 5, read-out: minimum inhibitory concentration): 0.48 µM (≈ 0.155 µg/mL)
- Mediated Chronocoulometric Respiration Activity Remaining, Percent ([3]; chloramphenicol 0.0048 μM): 95%
- Mediated Chronocoulometric Respiration Activity Remaining, Percent ([3]; chloramphenicol 0.048 μM): 102%
- Mediated Chronocoulometric Respiration Activity Remaining, Percent ([3]; chloramphenicol 0.48 μM): 66%
- Mediated Chronocoulometric Respiration Activity Remaining, Percent ([3]; chloramphenicol 4.8 μM): 58%
- Mediated Chronocoulometric Respiration Activity Remaining, Percent ([3]; chloramphenicol 48 μM): 52%
- Mediated Chronocoulometric Respiration Activity Remaining, Percent ([3]; chloramphenicol 480 μM): 35%
- Mediated Chronocoulometric Respiration Activity Remaining, Percent ([3]; chloramphenicol 4800 μM): 5%
- activity against growth [4]: active against the growth of this strain of Clostridium

Molecule: Lysozyme: an enzyme that destroys cell walls and is used extensively in protein purification procedures
- Charge, Average ([1]; lysozyme solution 1.5 mg/mL, blank 32 +/− 3): 22 +/− 1 μC
- loss of activity ([1]; lysozyme, conditions of Example 3): 31%
- Charge ([1]; lysozyme solution 1.5 mg/mL, 15 min at 0 C, then 10 min at 37 C with 50 mM ferricyanide): 21.1 μC and 22.8 μC and 21.6 μC
- Mediated Chronocoulometric Respiratory Activity Remaining, Percent ([2]; final concentration 0.57 mg/mL): 80%
- loss of activity ([2]; lysozyme, conditions of Example 5): 20%
